Measurements from US6387241B1, “Method of sterilization using ozone” (priority 1993, dated 2002).
Where two headings read alike, the source gives them in different places.

Test system: spores of Bacillus stearothermophilus and Bacillus subtilis var. niger (Duo-Spore paper spore strips)

SMILES: O=[O+][O-] [ozone]
- ozone exposure time to achieve overkill (100% of the spore strips sterilized) ("flow through" mode, about 2 liters per minute, 10-12 wt% ozone): 60 min
- ozone exposure time to achieve overkill (100% of the spore strips sterilized) ("pressure" mode, generator output 10-12 wt% ozone): 45 min
- ozone exposure time to achieve overkill (100% of the spore strips sterilized) ("single fill" mode, static 10 wt% ozone): 90 min
